The values below are quoted from earlier work in patent publication US20220296511A1, “COMPOSITIONS FOR DELIVERY OF DRUG COMBINATIONS TO TREAT LUNG DISEASE” (BOARD OF REGENTS, THE UNIVERSITY OF TEXAS SYSTEM, priority 2021, published 2022).

As a reminder, the half-life is how long it takes for the measured level to halve.

The conditions of data set [1]: rats, 50 mg/mL MFF suspension for nebulization.
The conditions of data set [2]: 150 mg oral dose.
The conditions of data set [3]: phase 3 trial.
Experiment in data set [4]: not given
The source holds these as a separate data set.

Experiment in data set [5]: not given
The source holds these as a separate data set.

Structures are written as SMILES. Like-named read-outs stand apart in the source and are kept apart here.

As for `COc1c(C)c2c(c(O)c1C/C=C(\C)CCC(=O)O)C(=O)OC2` [mycophenolic acid], for the setting “in vivo”, the therapeutic range is 1.0 to 3.5 µg/mL. Further, the “maximum plasma concentration decreased by food” value (oral) is recorded as 40%. Besides, the “lung concentration of mycophenolic acid as % of serum concentration” value in data set [1] is given as ~30%.

With `COC(=O)c1ccc2c(c1)NC(=O)/C2=C(\Nc1ccc(N(C)C(=O)CN2CCN(C)CC2)cc1)c1ccccc1` [nintedanib], in data set [2], the half-life is 9.49 h and the plasma concentration was 0.12 ng/mL/mg. Further, the diarrhea reported in data set [3] (most common adverse reaction) is 66.9%. For the same compound, the “reduction of FVC” value in data set [3] (nintedanib group) is listed as −80.0 mL per year.

In the case of `Cc1ccc(=O)n(-c2ccccc2)c1` [pirfenidone], the plasma concentration in data set [4] (801 mg oral dose) was 5000 ng/mL. In data set [4] (801 mg oral dose, worked out from plasma concentration), the lung concentration is 0.7 µg/g. In data set [4] (IV dose 40 mg/kg), the “lung tissue concentration as percentage of plasma concentration” value is recorded as “nine”. Besides, in data set [4] (oral), the “pirfenidone decreased by food” value was 50%. In data set [5] (100 mg aerosol pirfenidone), the “aerosol epithelial lining fluid (ELF) concentration relative to 801 mg oral” value is 35 times. The “systemic exposure less than the oral delivery” value in data set [5] (100 mg inhalation dose) is given as 15 fold.
